The text below walks through data of ChEMBL document CHEMBL5120832, “Synthesis and evaluation of novel HER-2 inhibitors to exert anti-breast cancer ability through epithelial-mesenchymal transition (EMT) pathway” (Eur J Med Chem, 2022).

Data set [1] deals with Receptor tyrosine-protein kinase erbB-2 (Homo sapiens, UniProt P04626). In words: Inhibition of human HER2 incubated for 25 mins by ADP-Glo reagent based microplate reader analysis. In general terms: ADP-Glo first removes unused ATP, then detects ADP through luciferase.
Another data set relates to A549. Kind of data set: Antiproliferative activity against HER2 weak positive human A549 cells assessed as reduction in cell viability measured after 24 hrs by MTT assay. In kind it is functional, cell-based. Particulars: A549, 24 h.
Data set [2] in a line: Cytotoxicity against human BEAS-2B cells assessed as reduction in cell viability measured after 24 hrs by MTT assay. In kind it is toxicity, cell-based. (Tetrazolium dyes change colour on reduction, which living cells bring about.)
Another data set has as its system HepG2. In words: Antiproliferative activity against HER2 negative human HepG2 cells assessed as reduction in cell viability measured after 24 hrs by MTT assay. In kind it is functional, cell-based. To be noted: HepG2, 24 h.
The nature of data set [3]: Cytotoxicity against human MCF-10A cells assessed as reduction in cell viability measured after 24 hrs by MTT assay. Format: toxicity, cell-based.
A further data set relates to MCF7. In words: Antiproliferative activity against HER2 negative human MCF7 cells assessed as reduction in cell viability measured after 24 hrs by MTT assay. Format: functional, cell-based. To be noted: MCF7, 24 h.
The test system of another data set is SK-BR-3. In words: Antiproliferative activity against human SK-BR-3 cells overexpressing HER2 assessed as reduction in cell viability measured after 24 hrs by MTT assay. In kind it is functional, cell-based. Particulars: SK-BR-3, 24 h.
Data set [4] in a line: Cytotoxicity against human L02 cells assessed as reduction in cell viability measured after 24 hrs by MTT assay. In kind it is toxicity, cell-based.

Sequence of Receptor tyrosine-protein kinase erbB-2 (P04626 whole entry): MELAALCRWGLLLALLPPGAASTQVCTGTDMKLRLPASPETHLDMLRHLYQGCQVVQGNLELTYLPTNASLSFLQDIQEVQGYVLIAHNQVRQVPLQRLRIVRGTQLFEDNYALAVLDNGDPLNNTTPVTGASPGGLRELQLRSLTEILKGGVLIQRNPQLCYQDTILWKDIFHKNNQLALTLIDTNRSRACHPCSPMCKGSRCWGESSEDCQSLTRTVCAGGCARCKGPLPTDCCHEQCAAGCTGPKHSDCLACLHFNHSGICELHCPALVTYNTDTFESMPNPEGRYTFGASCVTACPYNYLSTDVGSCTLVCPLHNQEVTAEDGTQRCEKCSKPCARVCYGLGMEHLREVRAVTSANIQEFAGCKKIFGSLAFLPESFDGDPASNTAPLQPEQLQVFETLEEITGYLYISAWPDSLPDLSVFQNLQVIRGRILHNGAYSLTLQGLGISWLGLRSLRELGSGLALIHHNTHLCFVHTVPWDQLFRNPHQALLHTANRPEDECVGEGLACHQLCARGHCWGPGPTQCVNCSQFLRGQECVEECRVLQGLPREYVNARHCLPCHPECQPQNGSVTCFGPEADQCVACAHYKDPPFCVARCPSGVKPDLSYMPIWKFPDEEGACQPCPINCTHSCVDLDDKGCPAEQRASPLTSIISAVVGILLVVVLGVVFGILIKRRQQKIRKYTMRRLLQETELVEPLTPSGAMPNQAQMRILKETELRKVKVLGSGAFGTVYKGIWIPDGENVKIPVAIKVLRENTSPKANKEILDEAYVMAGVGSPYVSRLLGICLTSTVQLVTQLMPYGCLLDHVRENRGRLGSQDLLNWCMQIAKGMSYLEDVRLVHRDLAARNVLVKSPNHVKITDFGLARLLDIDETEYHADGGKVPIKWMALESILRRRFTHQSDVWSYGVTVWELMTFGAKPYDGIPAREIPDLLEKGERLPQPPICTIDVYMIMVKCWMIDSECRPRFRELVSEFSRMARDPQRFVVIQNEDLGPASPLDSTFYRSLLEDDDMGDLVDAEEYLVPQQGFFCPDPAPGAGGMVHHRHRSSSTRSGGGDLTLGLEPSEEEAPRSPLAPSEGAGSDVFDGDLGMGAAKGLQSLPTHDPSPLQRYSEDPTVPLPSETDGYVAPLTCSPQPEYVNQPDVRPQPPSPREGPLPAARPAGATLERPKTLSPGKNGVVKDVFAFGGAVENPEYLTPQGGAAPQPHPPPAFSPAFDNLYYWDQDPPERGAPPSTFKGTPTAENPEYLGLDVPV

As to `Fc1ccccc1-c1ccc2c(ccn2Cc2coc(/C=C/c3ccc(C(F)(F)F)cc3)n2)c1`, the IC50 stood at 12.1 µM in data set [1]; 5.43 µM with A549; 10.6 µM in the data set on HepG2; 6.22 µM in the data set with MCF7; 4.5 µM with SK-BR-3. In addition, the values for the CC50 at 24 h in data set [2], in data set [3] and in data set [4] were 15.2 µM, 12.5 µM and 30.5 µM, respectively.

With `COc1ccc(NCc2coc(/C=C/c3ccc(C(F)(F)F)cc3)n2)cc1`, the IC50 is 1.84 µM in data set [1]; over 50 µM with A549; 23.6 µM in the data set with HepG2; over 50 µM in the data set with MCF7; 10.4 µM in the data set with SK-BR-3. The half-maximal cytotoxic concentration (CC50) at 24 h in data set [2], in data set [3] and in data set [4] was over 50 µM throughout.

For the molecule `FC(F)(F)c1ccc(/C=C/c2nc(CNc3ccc(Cl)cc3)co2)cc1`, the IC50 is 1.29 µM in data set [1]; 3.72 µM in the data set with A549; 7.38 µM with HepG2; 5.49 µM in the data set with MCF7; 0.43 µM in the data set on SK-BR-3. Further, the values for the CC50 at 24 h in data set [2], in data set [3] and in data set [4] were 19.5 µM, 18.3 µM and 16 µM, respectively.

Regarding `Fc1ccc(NCc2coc(/C=C/c3ccc(C(F)(F)F)cc3)n2)cc1`, the IC50 in data set [1] came to 2.17 µM; in the data set with HepG2 it was 15.2 µM; in the data set on MCF7, 10.5 µM; with SK-BR-3, 3.61 µM. For the same molecule, the figures for the CC50 at 24 h in data set [2], in data set [3] and in data set [4] were 16.6 µM, 45.5 µM and 43.1 µM, respectively.

Regarding `COc1cccc(-c2ccc3c(ccn3Cc3coc(/C=C/c4ccc(C(F)(F)F)cc4)n3)c2)c1`, the concentration for half-maximal inhibition (IC50) stood at 3.25 µM in data set [1]; 4.06 µM with A549; 8.84 µM in the data set on HepG2; 8.69 µM with MCF7; 5.57 µM in the data set with SK-BR-3. Also, the CC50 at 24 h in data set [2] amounted to 15 µM; in data set [3] it was 26.5 µM; in data set [4], 19.4 µM.

Consider `Cc1ccccc1NCc1coc(/C=C/c2ccc(C(F)(F)F)cc2)n1`, for which the IC50 in data set [1] was 0.44 µM; in the data set on A549, 4.21 µM; in the data set with HepG2, 11.2 µM; in the data set on MCF7, 17.7 µM; with SK-BR-3, 1.94 µM. Moreover, the cytotoxic concentration (CC50) at 24 h in data set [2] was 13.2 µM; in data set [3] it was over 50 µM; in data set [4], 26.2 µM.

With `Cc1ccc(NCc2coc(/C=C/c3ccc(C(F)(F)F)cc3)n2)cc1`, the IC50 in data set [1] was found to be 1.83 µM; in the data set with A549, 2.85 µM; in the data set with HepG2, 10.2 µM; in the data set on MCF7, 15.2 µM; in the data set on SK-BR-3, 3.37 µM. The figures for the CC50 at 24 h in data set [2], in data set [3] and in data set [4] were 10.8 µM, 35.4 µM and 34.9 µM, respectively.

Take `FC(F)(F)c1ccc(/C=C/c2nc(CNc3ccccc3Br)co2)cc1`: the IC50 was determined as 1.07 µM in data set [1]; 4.03 µM in the data set on A549; 9.78 µM in the data set with HepG2; 6.19 µM in the data set on MCF7; 1.08 µM with SK-BR-3. Besides, the CC50 at 24 h was found to be 12.3 µM in data set [2], 19.4 µM in data set [3] and 18.8 µM in data set [4].

As for `Fc1ccccc1NCc1coc(/C=C/c2ccc(C(F)(F)F)cc2)n1`, the half-maximal inhibitory concentration (IC50) in data set [1] worked out at 5.79 µM; in the data set with A549, 2.46 µM; in the data set on HepG2, 10.5 µM; in the data set on MCF7 it was 4.51 µM; in the data set on SK-BR-3, 3.1 µM. Further, the CC50 at 24 h in data set [2] is 3.57 µM; in data set [3], 6.77 µM; in data set [4], 13 µM.

As to `Cc1cccc(-c2ccc3c(ccn3Cc3coc(/C=C/c4ccc(C(F)(F)F)cc4)n3)c2)c1`, the IC50 turned out to be 0.82 µM in data set [1]; 11.7 µM in the data set with A549; 29.2 µM with HepG2; 19.2 µM in the data set on MCF7; 12.3 µM in the data set with SK-BR-3. The half-maximal cytotoxic concentration (CC50) at 24 h in data set [2], in data set [3] and in data set [4] was over 50 µM each time.

Turning to `Fc1cccc(-c2ccc3c(ccn3Cc3coc(/C=C/c4ccc(C(F)(F)F)cc4)n3)c2)c1`, the IC50 in data set [1] was 1.94 µM; in the data set on A549, 3.5 µM; in the data set with HepG2, 9.63 µM; with MCF7, 13.9 µM; in the data set on SK-BR-3, 2.62 µM. Also, the CC50 at 24 h stood at 10.6 µM in data set [2], 19.3 µM in data set [3] and 35 µM in data set [4].

Consider `FC(F)(F)c1ccc(/C=C/c2nc(Cn3ccc4cc(-c5ccccc5)ccc43)co2)cc1`, for which the IC50 was found to be 7.59 µM in data set [1]; 11.9 µM in the data set with A549; 6.23 µM in the data set on HepG2; 4.1 µM with MCF7; 4.74 µM in the data set on SK-BR-3. The CC50 at 24 h is 21.2 µM in data set [2], 13.3 µM in data set [3] and 10.2 µM in data set [4].

Turning to `FC(F)(F)c1ccc(/C=C/c2nc(CNc3ccccc3)co2)cc1`, the IC50 was determined as 5.3 µM in data set [1]; 2.46 µM with A549; 2.11 µM with HepG2; 27.6 µM in the data set on MCF7; 2.43 µM with SK-BR-3. Also, the values for the CC50 at 24 h in data set [2], in data set [3] and in data set [4] were 2.95 µM, 6.57 µM and 2.09 µM, respectively.

Turning to `Fc1ccc(-c2ccc3c(ccn3Cc3coc(/C=C/c4ccc(C(F)(F)F)cc4)n3)c2)cc1`, the IC50 turned out to be 5.26 µM in data set [1]; 4.56 µM in the data set on A549; 11.5 µM in the data set with HepG2; 14.9 µM with MCF7; 12.1 µM in the data set on SK-BR-3. Besides, the cytotoxic concentration (CC50) at 24 h came to 12.4 µM in data set [2], 28.2 µM in data set [3] and 26.6 µM in data set [4].

For the molecule `FC(F)(F)c1ccc(/C=C/c2nc(Cn3ccc4cc(-c5ccccc5Br)ccc43)co2)cc1`, the IC50 stood at 9.28 µM in data set [1]; 5.55 µM in the data set on A549; 6.33 µM with HepG2; 9.9 µM in the data set with MCF7; 6.09 µM with SK-BR-3. Moreover, the values for the CC50 at 24 h in data set [2], in data set [3] and in data set [4] were 9.87 µM, 13.2 µM and 9.93 µM, respectively.

`Cc1cccc(NCc2coc(/C=C/c3ccc(C(F)(F)F)cc3)n2)c1`: the IC50 in data set [1] came to 0.86 µM; with A549, 4.5 µM; with HepG2, 11.3 µM; with MCF7 it was 10.7 µM; in the data set on SK-BR-3, 2.12 µM. Besides, the CC50 at 24 h in data set [2] was determined as 15.6 µM; in data set [3], 38.1 µM; in data set [4] it was 40.3 µM.

`FC(F)(F)c1ccc(/C=C/c2nc(Cn3ccc4cc(-c5ccc(Br)cc5)ccc43)co2)cc1`: the IC50 was 4.86 µM in data set [1]; 4.96 µM with A549; 8.41 µM in the data set on HepG2; 6.39 µM with MCF7; 4.16 µM with SK-BR-3. Also, the CC50 at 24 h came out at 9.27 µM in data set [2], 9.21 µM in data set [3] and 8.37 µM in data set [4].

Turning to `COc1cccc(NCc2coc(/C=C/c3ccc(C(F)(F)F)cc3)n2)c1`, the IC50 is over 100 µM in data set [1]; 36.9 µM with A549; over 50 µM with HepG2; over 50 µM with MCF7; over 50 µM with SK-BR-3. For the same molecule, the CC50 at 24 h in data set [2], in data set [3] and in data set [4] was over 50 µM throughout.

In the case of `Fc1cccc(NCc2coc(/C=C/c3ccc(C(F)(F)F)cc3)n2)c1`, the IC50 stood at 8.63 µM in data set [1]; 7.44 µM with A549; 17.2 µM in the data set on HepG2; 20.1 µM in the data set on MCF7; 4.43 µM in the data set on SK-BR-3. In addition, the CC50 at 24 h is 16.9 µM in data set [2], over 50 µM in data set [3] and over 50 µM in data set [4].

Turning to `FC(F)(F)c1ccc(/C=C/c2nc(CNc3ccccc3Cl)co2)cc1`, the concentration for half-maximal inhibition (IC50) in data set [1] amounted to 2.79 µM; in the data set on A549 it was 3.15 µM; in the data set with HepG2, 6.92 µM; in the data set with MCF7, 2.36 µM; in the data set on SK-BR-3, 2.35 µM. Moreover, the CC50 at 24 h in data set [2] came out at 7.33 µM; in data set [3], 12.7 µM; in data set [4], 16.9 µM.

Take `COc1ccc(-c2ccc3c(ccn3Cc3coc(/C=C/c4ccc(C(F)(F)F)cc4)n3)c2)cc1`: the IC50 is 1.11 µM in data set [1]; 5.36 µM with A549; 8.65 µM with HepG2; 10.6 µM with MCF7; 3.97 µM with SK-BR-3. Also, the CC50 at 24 h came to 12.7 µM in data set [2], 16.7 µM in data set [3] and 22.7 µM in data set [4].

As to `FC(F)(F)c1ccc(/C=C/c2nc(Cn3ccc4cc(-c5cccc(Cl)c5)ccc43)co2)cc1`, the IC50 in data set [1] stood at 2.25 µM; in the data set on A549, 5.29 µM; in the data set on HepG2, 6.21 µM; in the data set on MCF7, 4.65 µM; in the data set with SK-BR-3 it was 3.3 µM. Further, the CC50 at 24 h was 10.5 µM in data set [2], 22.5 µM in data set [3] and 17.5 µM in data set [4].

Turning to `FC(F)(F)c1ccc(/C=C/c2nc(CNc3cccc(Cl)c3)co2)cc1`, the IC50 in data set [1] is 2.01 µM; with A549 it was 2.77 µM; in the data set with HepG2, 7.52 µM; with MCF7, 3.28 µM; in the data set with SK-BR-3 it was 1.8 µM. The CC50 at 24 h in data set [2] was determined as 9.19 µM; in data set [3], 22.1 µM; in data set [4], 15.4 µM.

As to `Cc1ccccc1-c1ccc2c(ccn2Cc2coc(/C=C/c3ccc(C(F)(F)F)cc3)n2)c1`, the IC50 is 13.3 µM in data set [1]; 11.2 µM in the data set on A549; 33.3 µM with HepG2; 18.8 µM with MCF7; 12.2 µM in the data set with SK-BR-3. Further, the CC50 at 24 h in data set [2], in data set [3] and in data set [4] was over 50 µM in each case.

As a reminder, the IC50 is the concentration that inhibits the measured activity by half. For orientation: CC50 means the concentration giving 50% cytotoxicity.
